Reference: patent US7625917B2, “Thiolesters and uses thereof” (priority 1998, dated 2009)
Like-named read-outs stand apart in the source and are kept apart here.

Legend:
HIV-1 virus = assay: Virus inactivation by PCR assay of treated virions; type: cell-based
From the text: The thiolester-treated virions can also be tested for infectivity. The virions are suspended in media (rather than solubilized) and added to target cells. The cultures are then examined to determine whether the virions are still active. To determine whether the treated virus particles are active, the cells are monitored for the presence of intracellularly-synthesized viral RNA using, for example, the polymerase chain reaction (PCR) (Rice (1993) Proc. Natl. Acad. Sci. USA 90:9721;Turpin (1996) J. Virol. 70:6180). Alternatively, cytoprotection assays can be used (Weislow (1993) J. Natl. Cancer Inst. 81:577).
An example of a compound which can be used as a control in the gel mobility shift assay is azodicarbonamide (ADA), a compound which is commercially available from the Aldrich Chemical Company (Milwaukee, Wis.).

[1] = molecular target: T1, Virion-associated NCp7 proteins from cell-free HIV-1MN (Human immunodeficiency virus type 1 group M subtype B, UniProt P05888); assay: Virion NCp7 cross-linking (non-reducing Western blotting)
T1 construct: attack on the mature NCp7 retroviral zinc fingers in the cell-free virus; endogenous in cells
Method: The interaction of zinc finger inhibitors, such as the thiolesters of the invention, with cell-free virus can result in modification of intravirion NCp7 protein and loss of infectivity. Virion-associated NCp7 proteins from cell-free HIV-1MN were treated with thiolester compounds 44 and 45. They were also evaluated by non-reducing Western blotting using HIV-1 NCp7-specific antibodies. […] Cross-linking by compound 45 was due to formation of intermolecular disulfide bonds because reduction with 2-mercaptoethanol (β-ME) completely reversed the gel retardation.
Virion cross linking was performed as described by Rice (1995) Science 270:1194-1197 and Turpin (1997) Antiviral Chem. Chemother. 8:60-67. Briefly, highly purified HIV-1MN (11.8 μg total protein) was incubated for 2 hour with concentrations of compound. Virions were concentrated and residual compound was removed by centrifugation (18,000×g, 1 h, 4° C.). The viral pellet was solubilized in 0.5 M Tris-HCl, (pH 6.8), 50% glycerol, 8% SDS and 0.4% bromophenol blue and proteins resolved by Western blotting. Western blotting to detect the expression of HIV-1 proteins in U1 cells or virus pellets for virion cross-linking experiments was carried out as described by Turpin (1996) J. Virol. 70:6180-6189. Briefly, 50 μg of total cellular protein for U1 experiments or the. total virion pellet (11.8 μg total viral protein) for NCp7 cross linking studies was resolved on 4 to 20% polyacrylamide gels in SDS with Tris-Glycine (Novex, San Diego Calif.). Samples for reduced gels were boiled for 5 min in the presence of 5% β-ME prior to loading. Resolved proteins were electroblotted on to polyvinylidene difluoride (PVDF) membranes, and HIV-1 specific proteins were detected using a mixture of goat anti-HIV-1 NCp7 and p24 or anti-NCp7 for virion proteins alone (a kind gift of L. E. Henderson, AIDS Vaccine Program NCI-FCRDC, Frederick, Md.). Western blots were developed using standard chemiluminescence methodologies, as produced and described by Dupont-NEN, Wilmington, Del.
Purified concentrated retrovirus and antisera against the purified NC protein of the virus can be used to test the ability of a specific compound to penetrate the virus and react with the NC protein by forming disulfide complexes in the core of the virus. Compound are mixed with the whole retrovirus under reaction conditions appropriate for the compound. The virus is then removed from the reagent by centrifugation and disrupted in, e.g., standard SDS-PAGE sample buffer with (reduced) and without (non-reduced) 2-mercaptoethanol. The viral proteins are then separated by standard SDS-PAGE and the sample examined for the presence or absence of the monomeric zinc finger protein in the non-reduced sample. Depending upon the virus used in the experiment and the conditions of electrophoresis, the zinc finger protein can be visualized by protein staining methods, or by immuno-blot methods. Compounds which react with the zinc finger protein by attacking the zinc finger complexes and forming disulfide cross-linked products inactivate the virus. Thus, compounds of interest (i.e., those which cause cross-linking), including the thiolesters of the invention, reduce the amount of monomeric zinc finger protein detected.

HIV-1RF = assay: XTT cytoprotection assay (antiviral activity); type: cell-based
From the text: One exemplary means to determine antiviral activity is with CEM-SS cells and virus (e.g., HIV-1RF) (MOI=0.01) using the XTT (2,3-bis[2-methoxy-4-nitro-5-sulfophenyl]-5-[(phenylamino)carbonyl]-2H-tetrazolium hydroxide) cytoprotection assay, as described by Rice (1993) PNAS 90:9721-9724, and Rice (1997) Antimicrob. Agents Chemother. 41:419-426. Briefly, cells are infected with HIV-1 RF (or other virus to be tested) in the presence of various dilutions of test compounds (thiolesters and controls). The cultures are incubated for seven days. During this time control cultures without protective compounds (i.e., compounds with anti-viral activity) replicate virus, induce syncytia, and result in about 90% cell death. The cell death is measured by XTT dye reduction. XTT is a soluble tetrazolium dye that measures mitochondrial energy output, similar to MTT. Positive controls using dextran sulfate (an attachment inhibitor) or 3′-Azido-2′-3′-dideoxythymidine, AZT (a reverse transcriptase inhibitor) are added to each assay. Individual assays are done in duplicate using a sister plate method.
Effective antiviral concentrations providing 50% cytoprotection (EC50), and cellular growth inhibitory concentrations causing 50% cytotoxicity (IC50) are calculated.

CEM-SS cells = assay: cells; type: cell-based
Method: Agents Chemother. […] Briefly, cells are infected with HIV-1 RF (or other virus to be tested) in the presence of various dilutions of test compounds (thiolesters and controls). The cultures are incubated for seven days. […] The cell death is measured by XTT dye reduction. XTT is a soluble tetrazolium dye that measures mitochondrial energy output, similar to MTT. Positive controls using dextran sulfate (an attachment inhibitor) or 3′-Azido-2′-3′-dideoxythymidine, AZT (a reverse transcriptase inhibitor) are added to each assay. Individual assays are done in duplicate using a sister plate method.

[2] = molecular target: T2, recombinant HIV-1 NCp7 protein (Human immunodeficiency virus type 1 group M subtype B, UniProt P03347); assay: Trp37 zinc finger fluorescence (zinc ejection) assay; type: biochemical
T2 construct: recombinant HIV-1 NCp7 protein
Method: Zinc finger reactivity was measured using a Zn specific fluorochrome, TSQ, N-(6-methoxy-8-quinolyl)-p-toluenesulfonamide, assay or a Trp37 zinc finger fluorescence assay. Fluorescent measurements of the Trp37 residue in the C-terminal finger of recombinant HIV-1 NCp7 protein were performed as described by Rice (1995) Science 270:1194-1197; Rice (1997) Antimicrob. Agents Chemother. 41:419-426. Measurement of Zn ejection from both fingers was measured using the Zn-selective fluorchrome probe TSQ (Molecular Probes, Eugene Oreg.) as described by Rice (1996) J. Med. Chem 39:3606-3616. […] Briefly, 50 nM NCp7 was treated with test compounds for 1 hour at RT in […] buffer containing 10% glycerol and 50 mM Tris-HCl (pH 7.5). Labeled oligomer (0.1 picomole, end labeled [^32P] was added in an equal volume of buffer containing 10% glycerol, 50 mM Tris-HCl (pH 7.5), 400 mM KCl and 40 mM MgCl2. The reaction was continued for 15 min at room temperature, and a total of […] (or ¼ of the total reaction volume) was separated on nondenaturing 4.5% polyacrylamide gels in 0.5× Tris-Borate electrophoresis buffer. NCp7-oligomer complexes were visualized by autoradiography.
Changes in the intrinsic fluorescence of aromatic protein moieties are commonly used to monitor a reaction which involves a change in protein conformation. In the present invention, fluorescence can be used to monitor the loss of metal ion from a zinc finger, e.g., the loss of zinc from a CCHC retroviral zinc finger protein, after contact with a thiolester of the invention. The intrinsic fluorescence of Trp37 in the second zinc finger of HIV-1 NC protein has been used to monitor nucleic acid binding and conformation of the zinc finger complex (see, Summers (1992) supra).
Zinc ejection is measured by the ability of compounds to chemically attack the cysteines in purified NCp7 protein resulting in a loss of fluorescence due to the. movement of the tryptophan 37 residue […] position on the protein. Zinc ejection is measured and expressed as either percent decrease in total fluorescence or decrease in relative fluorescence units per min during a 30 min assay (RFU/min). A thiolester is considered within the scope of the invention if any amount of zinc ejection is detected.

[3] = Table 5, 50% cytotoxicity, read-out: IC50
[4] = Table 5, average decrease in relative fluorescence units over 30 min
[5] = Table 10, 50% cytotoxicity, read-out: IC50
[6] = Table 10, average decrease in relative fluorescence units over 30 min

NC(=O)N=NC(N)=O [ADA, azodicarbonamide]
inactivation of HIV-1 virus (in words) (HIV-1 virus): inactivates HIV-1 virus

Cc1cn([C@H]2C[C@H](N=[N+]=[N-])[C@@H](CO)O2)c(=O)[nH]c1=O [AZT, 3′-Azido-2′-3′-dideoxythymidine, reference compound]
intravirion NCp7 cross-linking (in words) [1]: failed to cross-link NCp7

O=C(Nc1ccc(S(=O)(=O)c2ccc(NS(=O)(=O)Cc3ccccc3[N+](=O)[O-])cc2)cc1)c1ccccc1SSc1ccccc1C(=O)Nc1ccc(S(=O)(=O)c2ccc(NS(=O)(=O)Cc3ccccc3[N+](=O)[O-])cc2)cc1 [Compound 34 D]
antiviral activity (in words) (HIV-1RF): significant antiviral activity | EC50 (HIV-1RF; read-out: EC50 (concentration inhibiting 50% virus replication)): 12.3 µM | IC50 (CEM-SS cells; Table 3, 50% cytotoxicity, read-out: IC50): > 316 µM | cellular toxicity (in words) (CEM-SS cells; high test dose of 316 μM): no toxicity | Zinc Finger Reactivity RFU/min ([2]; Table 3, average decrease in relative fluorescence): 1.5 RFU/min

CC(=O)NS(=O)(=O)c1ccc(NC(=O)c2ccccc2NC(=O)CCCl)cc1 [Compound 37, N-[2-(3-chloro-propionamido)benzoyl]sulfacetamide]
antiviral activity (in words) (HIV-1RF): neither had appreciable antiviral activity | IC50 (CEM-SS cells; [3]): >316 µM | zinc finger reactivity (in words) [2]: modest zinc finger reactivity | Zinc Finger Reactivity RFU/min [2, 4]: 2.0 RFU/min

CC(=O)NS(=O)(=O)c1ccc(NC(=O)c2cccc(NC(=O)CCCl)c2)cc1 [Compound 38]
antiviral activity (in words) (HIV-1RF): neither had appreciable antiviral activity | EC50 (HIV-1RF; Table 5, read-out: EC50): 38 µM | IC50 (CEM-SS cells; [3]): 103 µM | zinc finger reactivity (in words) [2]: modest zinc finger reactivity | Zinc Finger Reactivity RFU/min [2, 4]: 3.9 RFU/min

CC(=O)NS(=O)(=O)c1ccc(NC(=O)c2ccccc2NC(=O)CCl)cc1 [Compound 39]
antiviral activity (in words) (HIV-1RF): completely inactive | IC50 (CEM-SS cells; [3]): 202 µM | Zinc Finger Reactivity RFU/min [2, 4]: 0.3 RFU/min

CC(=O)NS(=O)(=O)c1ccc(NC(=O)c2ccccc2SC(C)=O)cc1 [Compound 40]
EC50 (HIV-1RF; Table 5, read-out: EC50): 2.8 µM | IC50 (CEM-SS cells; [3]): 56.7 µM | IC50 (CEM-SS cells; read-out: IC50 range): ~50 µM | Zinc Finger Reactivity RFU/min [2, 4]: 4.2 RFU/min

CC(=O)NS(=O)(=O)c1ccc(NC(=O)c2ccccc2SC(=O)c2ccccc2)cc1 [Compound 41]
EC50 (HIV-1RF; Table 5, read-out: EC50): 2.6 µM | IC50 (CEM-SS cells; [3]): 45.7 µM | IC50 (CEM-SS cells; read-out: IC50 range): ~50 µM | Zinc Finger Reactivity RFU/min [2, 4]: 2.2 RFU/min

COc1ccc(C(=O)Sc2ccccc2C(=O)Nc2ccc(S(=O)(=O)NC(C)=O)cc2)cc1 [Compound 42]
EC50 (HIV-1RF; Table 5, read-out: EC50): 2.8 µM | IC50 (CEM-SS cells; [3]): 43.7 µM | IC50 (CEM-SS cells; read-out: IC50 range): ~50 µM | Zinc Finger Reactivity RFU/min [2, 4]: 3.5 RFU/min

O=C(CCCCBr)Sc1ccccc1C(=O)Nc1ccc(S(=O)(=O)c2ccc([N+](=O)[O-])cc2)cc1 [Compound 46]
EC50 (HIV-1RF; Table 6, read-out: EC50 %): 1.6 µM | IC50 (CEM-SS cells; Table 6, 50% cytotoxicity, read-out: IC50): 21.7 µM | Zinc Finger Reactivity RFU/min ([2]; Table 6, average decrease in relative fluorescence units over 30 min): 1 RFU/min

CC(=O)NS(=O)(=O)c1ccc(NC(=O)c2ccccc2SC(=O)CCC[n+]2ccccc2)cc1 [Compound 54]
EC50 (HIV-1RF; Table 10, read-out: EC50 %): 10.1 µM | IC50 (CEM-SS cells; [5]): 175 µM | Zinc Finger Reactivity RFU/min [2, 6]: 2.2 RFU/min

CC(=O)NS(=O)(=O)c1ccc(NC(=O)c2ccccc2SC(=O)CCCCC[n+]2ccccc2)cc1 [Compound 55]
EC50 (HIV-1RF; Table 10, read-out: EC50 %): 10.5 µM | IC50 (CEM-SS cells; [5]): 69.7 µM | Zinc Finger Reactivity RFU/min [2, 6]: 1.9 RFU/min

CC(=O)NS(=O)(=O)c1ccc(NC(=O)c2ccccc2NC(=O)CCCC[n+]2ccccc2)cc1 [Compound 56]
antiviral activity (in words) (HIV-1RF): inactive | IC50 (CEM-SS cells; [5]): >316 µM | Zinc Finger Reactivity RFU/min [2, 6]: 2.6 RFU/min

CC(=O)NS(=O)(=O)c1ccc(NC(=O)c2ccccc2SC(=O)CCCC[n+]2cccc(Cl)c2)cc1 [Compound 57]
EC50 (HIV-1RF; Table 10, read-out: EC50 %): 54 µM | IC50 (CEM-SS cells; [5]): 264 µM | Zinc Finger Reactivity RFU/min [2, 6]: 0.2 RFU/min
